Measured values published in patent publication US20250074911A1, “MACROCYCLIC BTK INHIBITORS” (Crossfire Oncology Holding B.V., priority 2021, published 2025).
pIC50, pKd: −log10 of the molar value. Values joined by “and” are separate entries in the source; they are usually repeats but may differ in a detail not shown here. Equal entries are not always repeated.

Assays:
BTK T316A = BTK T316A (Homo sapiens (Human), UniProt Q06187, T316A); assay: Binding kinetics measurements (Surface Plasmon Resonance) on BTK T316A; conditions: for pKd: binding affinity by Surface Plasmon Resonance (SPR); for Tau (h) BTK T316A (Act): target residence time, SPR
Method in brief: (§1)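 Using streptavidin-captured kinase, binding was followed by SPR in 1% DMSO buffer at 22° C and 30 μl/min. Five consecutive compound injections spanned 3.16-316 nM, preceded by a blank run; data were double referenced before kinetic fitting.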

BTK T474I = BTK T474I (Homo sapiens (Human), UniProt Q06187, T474I); assay: Binding kinetics measurements (Surface Plasmon Resonance) on BTK T474I; conditions: for pKd: binding affinity by Surface Plasmon Resonance (SPR); for Tau (h) BTK T474I (Act): target residence time, SPR
Method in brief: as §1

wt-BTK = wt-BTK (Homo sapiens (Human), UniProt Q06187); assay: Binding kinetics measurements (Surface Plasmon Resonance) on wt-BTK; conditions: for pKd: binding affinity by Surface Plasmon Resonance (SPR); for Tau (h) wt-BTK (Act): target residence time, SPR
Method in brief: as §1

[1] = test system: wt-TMD8 diffuse large B-cell lymphoma cells; assay: Cell proliferation assay wt-TMD8 (ATPlite, 120 hours); type: cell-based; conditions: B-cell; wt-TMD8 cells, 120 hours, ATPlite; read-out: IC50 wt-TMD8
Method in brief: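 Readout is percentage growth from ATPlite 1Step luminescence after 5 days (120 h) compound treatment of wt-TMD8 lymphoma cells (1600/well, RPMI-1640 + 10% FBS). Time-zero signal separates growth inhibition from cell kill; 0.3% DMSO wells without compound define maximal growth.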

[2] = target: full-length wt-BTK enzyme (Homo sapiens (Human), UniProt Q06187); assay: Biochemical kinase assay wt-BTK (IMAP)
Method in brief: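 Compound and enzyme (final 1.2 nM) were pre-incubated for 1 h at RT, after which the reaction was started with 4 μM ATP plus 50 nM fluorescein-MBP substrate peptide. After 2 h in the dark, the IMAP progressive binding reagent stopped the reaction, and phosphorylation was read by fluorescence polarization.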

BTK T474S = BTK T474S (Homo sapiens (Human), UniProt Q06187, T474S); assay: Binding kinetics measurements (Surface Plasmon Resonance) on BTK T474S; conditions: for residence time: SPR binding kinetics, BTK T474S, read-out: Tau (h) BTK T474S (Act), target residence time (converted); for pKd: binding affinity by Surface Plasmon Resonance (SPR)
Method in brief: as §1

[3] = target: full-length BTK C481S enzyme (Homo sapiens (Human), UniProt Q06187, C481S); assay: Biochemical kinase assay BTK C481S (IMAP)
Method in brief: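 IC50 values come from IMAP fluorescence polarization after quenching with progressive binding solution. The reaction ran 2 h at room temperature in the dark with 1.2 nM full-length C481S enzyme, 7 μM ATP and 50 nM fluorescein-labelled MBP-derived peptide, following a 1 h dark pre-incubation of compound with enzyme.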

BTK C481S = BTK C481S (Homo sapiens (Human), UniProt Q06187, C481S); assay: Binding kinetics measurements (Surface Plasmon Resonance) on BTK C481S; conditions: for pKd: binding affinity by Surface Plasmon Resonance (SPR); for Tau (h) BTK C418S (Act): target residence time for BTK C481S, SPR
Method in brief: as §1

REC-1 T474I cell lines = assay: Cell proliferation assay REC-1 BTK T474I knock-in cells (ATPlite, 72 hours); type: cell-based; conditions: Homo sapiens, Rec1; 72 hours; read-out: IC50 REC-1 T474I
Method in brief: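 REC-1 cells carrying CRISPR knock-in mutant BTK, single-cell cloned and sequence-confirmed, were exposed to compound for 72 h and read by ATPlite luminescence. Percentage growth was calculated against the signal at the start of incubation and against untreated 0.3% DMSO wells as maximum growth.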

[4] = test system: wt-REC-1 mantle cell lymphoma cells; assay: Cell proliferation assay wt-REC-1 (ATPlite, 72 hours); type: cell-based; conditions: 72 h; read-out: IC50 wt-REC-1
Method in brief: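 Luminescent viability read over 72 h, start-of-incubation signal recorded separately to separate growth from cell death. Percentage growth referenced to compound-free 0.3% DMSO wells; IC50 from 4-parameter logistic fit.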

Chain of full-length BTK C481S enzyme (Q06187 whole entry C481S): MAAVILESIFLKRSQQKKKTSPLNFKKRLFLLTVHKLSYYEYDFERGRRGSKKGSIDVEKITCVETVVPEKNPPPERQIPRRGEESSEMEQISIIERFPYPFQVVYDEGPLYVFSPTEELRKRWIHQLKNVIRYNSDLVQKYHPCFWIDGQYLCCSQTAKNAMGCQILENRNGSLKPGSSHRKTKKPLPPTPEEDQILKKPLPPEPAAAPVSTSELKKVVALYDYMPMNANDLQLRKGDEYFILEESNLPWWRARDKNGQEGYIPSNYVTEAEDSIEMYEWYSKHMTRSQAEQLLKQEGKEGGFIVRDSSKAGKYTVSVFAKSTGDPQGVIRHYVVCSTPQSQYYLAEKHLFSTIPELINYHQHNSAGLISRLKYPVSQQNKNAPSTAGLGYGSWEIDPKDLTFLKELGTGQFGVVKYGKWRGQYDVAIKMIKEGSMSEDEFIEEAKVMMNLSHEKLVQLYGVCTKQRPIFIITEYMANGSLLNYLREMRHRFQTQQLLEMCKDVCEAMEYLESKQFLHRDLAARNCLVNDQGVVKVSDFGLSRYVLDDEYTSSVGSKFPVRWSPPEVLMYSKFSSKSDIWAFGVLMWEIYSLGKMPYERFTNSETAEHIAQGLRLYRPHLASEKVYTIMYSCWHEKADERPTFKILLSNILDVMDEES
Chain of BTK C481S (Q06187 whole entry C481S): as above
Chain of BTK T474I (Q06187 whole entry T474I): as the sequence (Q06187 whole entry C481S) above, with T474I, S481C counted along it
Chain of BTK T474S (Q06187 whole entry T474S): as the sequence (Q06187 whole entry C481S) above, with T474S, S481C counted along it
Chain of wt-BTK (Q06187 whole entry): as the sequence (Q06187 whole entry C481S) above, with S481C counted along it
Chain of full-length wt-BTK enzyme (Q06187 whole entry): as the sequence (Q06187 whole entry C481S) above, with S481C counted along it
Chain of BTK T316A (Q06187 whole entry T316A): as the sequence (Q06187 whole entry C481S) above, with T316A, S481C counted along it

SMILES | pKd (BTK T316A) | Tau (h) BTK T316A (Act) (BTK T316A) [h] | pKd (BTK T474I) | Tau (h) BTK T474I (Act) (BTK T474I) [h] | pKd (wt-BTK) | Tau (h) wt-BTK (Act) (wt-BTK) [h] | pIC50 [1] | pIC50 [2] | residence time (BTK T474S) [h] | pKd (BTK T474S) | pIC50 [3] | pKd (BTK C481S) | Tau (h) BTK C418S (Act) (BTK C481S) [h] | pIC50 (REC-1 T474I cell lines) | pIC50 [4]
Nc1ncc2c3c1c(-c1ccc(C(=O)Nc4cc(C(F)(F)F)ccn4)cc1)nn3[C@@H]1CCC[C@H](C1)NC(=O)CCNCC/C=C/2 [Example 33] | > 8.30 | 3.62 | > 8.70 | 1.26 | > 8.30 | 3.46 | > 7.00 | > 8.30 | 5.78 | > 8.52 | > 8.30 | > 8.30 | 9.96 | > 7.00 | > 7.00
Nc1ncc2c3c1c(-c1ccc(C(=O)Nc4cc(C(F)(F)F)ccn4)cc1)nn3[C@@H]1CCC[C@H](C1)NC(=O)C1CCN1CC/C=C/2 (stereo partly shown) [Example 34] | > 8.30 | 5.41 | > 8.70 | 1.70 | > 8.30 | 6.06 | > 7.00 | > 8.30 | 8.1 | > 8.52 | > 8.30 | > 8.30 | 9.06 | > 7.00 | > 7.00
Nc1ncc2c3c1c(-c1ccc(C(=O)Nc4cc(C(F)(F)F)ccn4)cc1)nn3[C@@H]1CCC[C@H](C1)NC(=O)CNC[C@@H](O)/C=C/2 [Example 39] | > 8.30 | 1.25 | > 8.70 | – | > 8.30 | 4.22 | > 7.00 | > 8.30 | 5.96 | > 8.52 | > 8.30 | > 8.30 | 2.54 | 5.00 to 6.30 | 6.00 to 7.00
C[C@@H]1CC(=O)N[C@@H]2CCC[C@H](C2)n2nc(-c3ccc(C(=O)Nc4cc(C(F)(F)F)ccn4)cc3)c3c(N)ncc(c32)/C=C/CN1C [Example 44] | > 8.30 | 2.47 | > 8.70 | 0.87 | > 8.30 | 2.32 | > 7.00 | > 8.30 | 3.27 | > 8.52 | > 8.30 | > 8.30 | – | > 7.00 | > 7.00
Nc1ncc2c3c1c(-c1ccc(C(=O)Nc4cc(C(F)(F)F)ccn4)cc1)nn3[C@@H]1CCC[C@H](C1)NC(=O)CCC/C=C/2 [Example 47] | > 8.30 | 1.91 | > 8.70 | 0.86 | > 8.30 | 2.66 | > 7.00 | > 8.30 | 2.76 | > 8.52 | > 8.30 | > 8.30 | 4.68 | 6.30 to 7.00 | 6.00 to 7.00
Nc1ncc2c3c1c(-c1ccc(C(=O)Nc4cc(C(F)(F)F)ccn4)cc1)nn3[C@@H]1CCC[C@H](C1)NC(=O)CCCC/C=C/2 [Example 48] | > 8.30 | 3.89 | > 8.70 | 2.01 | > 8.30 | 7.37 | > 7.00 | > 8.30 | 4.18 | > 8.52 | > 8.30 | > 8.30 | 4.27 | > 7.00 | > 7.00
Nc1ncc2c3c1c(-c1ccc(C(=O)Nc4cc(C(F)(F)F)ccn4)cc1)nn3[C@@H]1CCC[C@H](C1)NC(=O)COC/C=C/2 [Example 49] | > 8.30 | 2.20 | > 8.70 | – | > 8.30 | 3.20 | > 7.00 | > 8.30 | 4.63 | > 8.52 | > 8.30 | > 8.30 | 4.75 | 6.30 to 7.00 | > 7.00
COc1ccc(F)cc1C(=O)NCc1ccc(-c2nn3c4c(cnc(N)c24)/C=C/CCCC(=O)N[C@@H]2CCC[C@@H]3C2)cc1 [Example 50] | > 8.30 | – | 7.30 to 8.00 and > 8.30 | – | > 8.30 | – | > 7.00 | > 8.30 | – | > 8.52 | > 8.30 | > 8.30 | – | 5.00 to 6.30 | 6.00 to 7.00
COc1ccc(F)cc1C(=O)NCc1ccc(-c2nn3c4c(cnc(N)c24)/C=C/CCCCC(=O)N[C@@H]2CCC[C@@H]3C2)cc1 [Example 51] | > 8.30 | – | 7.30 to 8.00 and > 8.30 | – | > 8.30 | 1.82 | > 7.00 | > 8.30 | 2.09 | > 8.52 | > 8.30 | > 8.30 | 1.92 | 6.30 to 7.00 | 6.00 to 7.00
COc1ccc(F)cc1C(=O)NCc1ccc(-c2nn3c4c(cnc(N)c24)/C=C/CO[C@H](C)C(=O)N[C@@H]2CCC[C@@H]3C2)cc1 [Example 53] | > 8.30 | – | 7.30 to 8.00 and > 8.30 | – | > 8.30 | 0.89 | > 7.00 | > 8.30 | 1.26 | > 8.52 | > 8.30 | > 8.30 | 1.57 | 6.30 to 7.00 | > 7.00
C[C@@H]1CCn2nc(-c3ccc(C(=O)Nc4cc(C(F)(F)F)ccn4)cc3)c3c(N)ncc(c32)/C=C/COCC(=O)N1 [Example 56] | > 8.30 | 1.46 | 7.30 to 8.00 and > 8.30 | – | > 8.30 | 2.24 | > 7.00 | > 8.30 | 2.62 | > 8.52 | > 8.30 | > 8.30 | 2.74 | 5.00 to 6.30 | > 7.00
C[C@@H]1CCn2nc(-c3ccc(C(=O)Nc4cc(C(F)(F)F)ccn4)cc3)c3c(N)ncc(c32)/C=C/CO[C@H](C)C(=O)N1 [Example 57] | > 8.30 | 2.06 | > 8.70 | – | > 8.30 | 2.14 | > 7.00 | > 8.30 | 1.96 | > 8.52 | > 8.30 | > 8.30 | 7.92 | 5.00 to 6.30 | > 7.00
C[C@@H]1CCn2nc(-c3ccc(C(=O)Nc4cc(C(F)(F)F)ccn4)cc3)c3c(N)ncc(c32)/C=C/CCOCC(=O)N1 [Example 59] | > 8.30 | 1.04 | 7.30 to 8.00 and > 8.30 | – | > 8.30 | 1.10 | > 7.00 | > 8.30 | – | > 8.52 | > 8.30 | > 8.30 | 2.05 | 5.00 to 6.30 | > 7.00
C[C@@H]1CCn2nc(-c3ccc(C(=O)Nc4cc(C(F)(F)F)ccn4)cc3)c3c(N)ncc(c32)/C=C/CCN2CC[C@H]2C(=O)N1 [Example 68] | > 8.30 | 3.79 | > 8.70 | – | > 8.30 | 4.48 | > 7.00 | > 8.30 | 3.79 | > 8.52 | > 8.30 | > 8.30 | 2.39 | 5.00 to 6.30 | > 7.00
